ChEMBL document CHEMBL4689842, “EUbOPEN Chemogenomics Library wave 1” (2021)

What was measured:
Assay type in all cases: toxicity, cell-based
[1] = test system: U2OS; assay: Incucyte cell viability with U2OS; details: human, 10 µM, compound concentration 10 uM
[2] = test system: Fibroblast; assay: Incucyte cell viability with human fibroblast; details: 10 µM, compound concentration 10 uM
[3] = test system: HEK-293T; assay: Incucyte cell viability with HEK293T; details: human, 10 µM, compound concentration 10 uM
[4] = 0 h, replicate number 1, timepoint 0 hours
[5] = 6 h, replicate number 2, timepoint 6 hours
[6] = 12 h, replicate number 2, timepoint 12 hours
[7] = 18 h, replicate number 1, timepoint 18 hours
[8] = 18 h, replicate number 2, timepoint 18 hours
[9] = 24 h, replicate number 1, timepoint 24 hours
[10] = 24 h, replicate number 2, timepoint 24 hours
[11] = 6 h, replicate number 1, timepoint 6 hours
[12] = 12 h, replicate number 1, timepoint 12 hours
[13] = 0 h, replicate number 2, timepoint 0 hours
Also: filed as whole numbers so only -1 and 0 and 1 occur.

Structure (SMILES) | Growth Rate [1, 4] | Growth Rate [1, 5] | Growth Rate [1, 7] | Growth Rate [1, 8] | Growth Rate [1, 9] | Growth Rate [1, 10] | Growth Rate [2, 4] | Growth Rate [2, 11] | Growth Rate [2, 12] | Growth Rate [2, 7] | Growth Rate [2, 9] | Growth Rate [3, 4] | Growth Rate [3, 13] | Growth Rate [3, 11] | Growth Rate [3, 12] | Growth Rate [3, 7] | Growth Rate [3, 9] | Growth Rate [1, 12] | Growth Rate [3, 6] | Growth Rate [1, 11] | other results
COc1ccc(/C=C/CCCCOc2ccc(C(=O)c3cccc(C(=O)O)c3)cc2CCC(=O)O)cc1 | 0 | 0 | 1 | 0 | 1 | 0 | 0 | 1 | 0 | 0 | 0 | 1 | 0 | 1 | 1 | 1 | 1 | – | – | – | Growth Rate [1, 6]: 0; Growth Rate [2, 5]: 0; Growth Rate [3, 10]: 0
CO[C@@H]1COCC[C@@H]1N[C@@H]1CC[C@@](C(=O)N2CCc3ncc(C(F)(F)F)cc3C2)(C(C)C)C1 [MK-0812] | 0 | 0 | 1 | – | 1 | – | 0 | 1 | 1 | 1 | 1 | 0 | – | 1 | 1 | 1 | 1 | 1 | – | – | Growth Rate [2, 13]: 1; Growth Rate [2, 5]: 0; Growth Rate [2, 8]: 0; Growth Rate [2, 10]: 0; Growth Rate [3, 5]: 0
CN(C(=O)Cc1ccc(Cl)c(Cl)c1)C(CN1CCCC1)c1cccc(OCC(=O)O)c1.Cl (stereo unspecified) | 0 | 1 | 0 | 1 | 1 | – | 0 | 0 | 0 | 0 | 0 | 0 | – | 1 | 1 | 1 | 1 | 0 | 0 | – | Growth Rate [1, 6]: 1; Growth Rate [2, 6]: 1; Growth Rate [3, 5]: 0; Growth Rate [3, 10]: 0
N#Cc1ccccc1OCC(O)CNCCNC(=O)Nc1ccccc1 (stereo unspecified) [ICI-89406] | 0 | 0 | 0 | – | 1 | 0 | 0 | 0 | 0 | 0 | 0 | 1 | 0 | 0 | 0 | 1 | 1 | 0 | 1 | 1 | –
O=C(O)CC1CCC2(CC1)CCN(c1cc(OC(F)(F)F)ccc1Cl)CC2 | 1 | 1 | 1 | – | 1 | – | 0 | 1 | – | 1 | 1 | 0 | – | 1 | 0 | 0 | 0 | 1 | 1 | – | Growth Rate [1, 13]: 0; Growth Rate [3, 8]: 1; Growth Rate [3, 10]: 1
COc1cc2c(cc1-c1c(C)noc1C)ncc1[nH]c(=O)n([C@H](C)c3ccccn3)c12 | 0 | – | 1 | – | 1 | – | 0 | – | 1 | 0 | 0 | – | 0 | 0 | – | 0 | 0 | 1 | 0 | 1 | Growth Rate [2, 6]: 0
CN(C)CC[C@@H](c1ccc(Cl)cc1)c1ccccn1.O=C(O)/C=C\C(=O)O [DEXCHLORPHENIRAMINE MALEATE] | 0 | 0 | 0 | – | 1 | 0 | 0 | 1 | 1 | 1 | 1 | 0 | – | 1 | 1 | 1 | 1 | 1 | – | – | Growth Rate [1, 6]: 0; Growth Rate [2, 8]: 0; Growth Rate [2, 10]: 0; Growth Rate [3, 5]: 0
Nc1nc(NCCc2ccc(O)cc2)nc2nc(-c3ccco3)nn12 [ZM-241385] | – | – | 0 | 1 | 0 | 1 | 0 | – | 1 | 1 | 1 | 1 | 0 | 0 | 0 | 0 | 0 | 0 | – | 0 | Growth Rate [1, 13]: 0; Growth Rate [1, 6]: 1; Growth Rate [2, 13]: 1; Growth Rate [2, 5]: 0; Growth Rate [2, 6]: 0; Growth Rate [2, 8]: 0
CCC(=O)N[C@H]1CC[C@@H](C(=O)N(C)c2ccc(-c3nc4ccccc4o3)cc2)C1 [BI 99179] | 0 | 1 | 1 | 0 | 1 | 0 | 0 | 1 | 1 | 0 | 0 | – | 1 | 0 | 0 | 0 | 0 | 1 | – | 0 | Growth Rate [2, 13]: 1; Growth Rate [2, 10]: 1
Cc1cc(C)c(N)c(C#Cc2cccc(F)c2)n1.Cl | – | – | 0 | 1 | 0 | 1 | 0 | 0 | 0 | 0 | 0 | 1 | 0 | 0 | 0 | 0 | 0 | 0 | 1 | 0 | Growth Rate [3, 5]: 1; Growth Rate [3, 8]: 1; Growth Rate [3, 10]: 1
